{
  "source": "patent US20230220331A1",
  "about": "“TEMPORARY TREATMENT MEDIUM, TREATMENT KIT, EMBRYOGENESIS ARREST INHIBITOR, EMBRYOGENESIS ARREST INHIBITORY METHOD, DEVELOPMENTAL ENGINEERING PRODUCT PREPARATION METHOD, TRANSPLANTATION METHOD, THERAPEUTIC METHOD, AND DEVELOPMENTAL ENGINEERING PRODUCT” (priority 2020, published 2023)",
  "type_in_all_cases": "cell-based",
  "key": {"[1]": {"test_system": "inbred rat F344 embryos", "assay": "Development to blastocyst after two electroporations (Treatment Example 5)", "conditions": "treated before and after electroporation", "protocol": "1. At least 3 hours before TAKE, 5 drops of Y-27632-added KSOM AA medium (Y-27632 final concentration 10 μM, an example of the “temporary treatment medium” of this example) were placed on a 35 mm Petri dish and drops covered with paraffin oil.\n2. Pronuclear stage embryos were collected, placed in Y-27632-added KSOM AA medium, and cultured for about 30 minutes to 1 hour (temporary treatment).\n(§1) 3. After that, the first TAKE was performed.\n4. After TAKE, the embryos were placed in Y-27632-added KSOM AA medium and cultured under 37° C., 5% CO2, and 5% O2 conditions for 30 minutes and more and up to 12 hours (temporary treatment).\n5. Then, they were placed in Y-27632-free KSOM AA medium (an example of the “normal medium” of this example), and cultured under 37° C., 5% CO2, and 5% O2 conditions until the second TAKE.\n6. The next day, the embryos that had become two cells were separated, and about 20 to 22 hours after egg collection, they were placed in Y-27632-added KSOM AA medium again and cultured for about 30 minutes to 1 hour (temporary treatment).\n7. After that, the second TAKE was performed.\n8. […]\nIn these figures, the development rate of the two-cell stage was calculated as the ratio of the two-cell stage embryo to the pronuclear stage embryo, and the development rate of the blastocyst stage was calculated as the ratio of the blastocyst stage to the two-cell stage embryo."}, "[2]": {"test_system": "immunodeficient mouse (nude) pronuclear stage embryos, BALB/c-nu", "assay": "Multi-gene knockout (BBOX1, IL2RG) in nude mouse embryos (Treatment Example 7)", "protocol": "1. Up to 3 hours before TAKE, Y-27632-added mWM medium (Y-27632 final concentration 10 μM, an example of the “temporary treatment medium” of this example) and Y-27632-free mWM medium (an example of “normal medium” of this example) were dropped into 35 mm Petri dishes by 5 drops, respectively, to prepare the drops covered with paraffin oil.\n2. Pronuclear stage embryos were collected from the drops, placed in Y-27632-added mWM medium, and cultured for about 30 minutes to 1 hour (temporary treatment).\n3. After that, TAKE was performed.\n4. After TAKE, the embryos were placed in Y-27632-added mWM medium and cultured for about 30 minutes to 1 hour (temporary treatment).\n5. Then, the embryos were placed in Y-free mWM medium and cultured at 37° C. under 5% CO2 and (5% O2) conditions until the next day. If necessary, culture was continued or embryo transfer was performed in Y-27632-free mWM medium.\nIn this production example, a multi-gene KO mouse was prepared by using an immunodeficient mouse (nude, a nude mouse) embryo.\nSpecifically, a male of BALB/c-nu/nu and a female of BALB/c-nu/+ treated with ovarian hyperstimulation were crossed, and a pronuclear stage embryos were collected. The guide RNAs (crRNA: tracrRNA), which are two for the BBOX1 gene and two for the IL2RG gene, are electroporated at about 100 ng/μL per guide RNA, totaling about 400 ng/μL, are electroporated with 14 transfer pulses, and, before and after the electroporation, the embryos were cultured in the temporary treatment medium of this example."}, "[3]": {"test_system": "inbred mouse B6J embryos", "assay": "Generation of Flox inbred mice (individuals) by two-step method (Treatment Example 11)", "protocol": "1. Up to 3 hours before TAKE, Y-27632-added mWM medium (Y-27632 final concentration 10 μM, an example of the “temporary treatment medium” of this example), Y-27632-free mWM medium (an example of “normal medium” of this example), 5 drops of each medium were dropped on 35 mm Petri dish, and then covered with paraffin oil. For the drops, twice the number of the drops plates to be performed TAKE were prepared.\n2. Pronuclear stage embryos were collected, placed in Y-27632-added mWM medium, and cultured for about 30 minutes to 1 hour (temporary treatment).\nas §1\n3a. In the case of frozen eggs, after the first TAKE, they were placed in a Y-27632-added mWM medium and cultured for about 30 minutes to 1 hour (temporary treatment).\n3b. In the case of unfrozen eggs, after the first TAKE, they were placed in a Y-27632-added mWM medium and cultured under 37° C. and 5% CO2 (5% O2) conditions until the next day (temporary treatment).\n4. After the temporary treatment, the embryos were placed in Y-27632-free mWM medium and cultured at 37° C. and 5% CO2 (5% O2) conditions until the next day.\n5. Both were confirmed at the next day, and the embryos at the 2-cell stage were subjected to the second TAKE.\n6. After the second TAKE, the embryos were placed in Y-27632-added mWM medium and cultured for about 30 minutes to 1 hour (temporary treatment).\n7. Then, they were transferred to Y-27632-free mWM medium. If necessary, culture was continued or embryo transfer was performed.\nBy using an inbred mouse (B6J in B6 strain) different from the inbred mouse of the treatment example 2 according to the first embodiment, knock-in is performed by the same two-step method as the above-mentioned treatment example 2, and further individual preparation is performed."}, "[4]": {"test_system": "frozen and thawed pronuclear stage and 2-cell stage embryos of rat Wistar-Imamichi", "assay": "Genome-edited individuals by frozen 1-2 cell TAKE of Wistar-Imamichi (Treatment Example 17)", "from_the_text": "Next, knock-outs by TAKE were also produced in the pronuclear stage (1 cell) and the 2-cell stage (2 cells) […] of the frozen and thawed inbred rat Wistar-Imamichi. The conditions at this time were that the gRNA concentration was a specified amount (1 time), the pulse was 7 times, and the reduction rate was 40%."}, "[5]": {"test_system": "early embryos of immunodeficient mouse NOD-scid", "assay": "Genome editing efficiency of multiple targets (Treatment Example 19)", "conditions": "Bbox1, IL2RG, 4 target sites", "protocol": "Electroporation (genome editing) of high-concentration RNA-protein mixed with CRISPR-Cas9 at multiple sites (4 sites in total) of a plurality of genes in early embryos of immunodeficient mice, which are extremely difficult to manipulate and prepare, was performed, transplanted into the recipient's uterus, and the offspring were obtained."}, "[6]": {"conditions": "of 4 surviving and 3 stillborn newborns analysed"}, "[7]": {"conditions": "floxed Mecp2 2STEP (HIGH CONCENTRATION)"}},
  "data": [
    {"compound": "C[C@@H](N)[C@H]1CC[C@H](C(=O)Nc2ccncc2)CC1", "note": "[Y-27632, trans-4-[(1R)-1-Aminoethyl]-N-4-pyrid inylcyclohexanecarboxamide]", "values": [
      {"measurement": "2-cell stage embryos developed until the blastocyst stage (proportion)", "setting": "[1]", "value": "74 of 103"},
      {"measurement": "embryos developed to the blastocyst (%)", "setting": "[1]; ratio of blastocysts to 2-cell embryos", "value": 71.8, "unit": "%"},
      {"measurement": "pups born", "setting": "[2]; BALB/c nude embryos, 4 guide RNAs about 400 ng/μL, 14 transfer pulses, 63 embryos transplanted", "value": 16},
      {"measurement": "analysed newborns with mutations", "setting": "[2]; [6]", "value": 3},
      {"measurement": "analysed newborns with mutations in 2 genes", "setting": "[2]; [6]", "value": 1},
      {"measurement": "Flox individuals %", "setting": "[3]; floxed Drb1 2STEP", "value": 2.6, "unit": "%"},
      {"measurement": "NUMBER OF FLOX INDIVIDUALS", "setting": "[3]; floxed Drb1 2STEP", "value": "1/39"},
      {"measurement": "Flox individuals %", "setting": "[3]; [7]", "value": 3.9, "unit": "%"},
      {"measurement": "NUMBER OF FLOX INDIVIDUALS", "setting": "[3]; [7]", "value": "2/51"},
      {"measurement": "NUMBER OF KO INDIVIDUALS (Large Deletion)", "setting": "[4]; 37 TAKE embryos, 1 recipient", "value": 2},
      {"measurement": "NUMBER OF NEWBORNS", "setting": "[4]; 37 TAKE embryos, 1 recipient, 1x gRNA, 7 pulses, 40% reduction rate", "value": 8},
      {"measurement": "KO rate (Large deletion) (%)", "setting": "[4]; KO individuals / newborns analyzed", "value": "(25%)"},
      {"measurement": "KO %", "setting": "[5]; 47 embryos transferred", "value": 57, "unit": "%"},
      {"measurement": "Pups", "setting": "[5]; 47 embryos transferred", "value": 7},
      {"measurement": "Pups (KO)", "setting": "[5]; 47 embryos transferred", "value": 4},
      {"measurement": "KO %", "setting": "[5]; 49 embryos transferred", "value": 100, "unit": "%"},
      {"measurement": "Pups", "setting": "[5]; 49 embryos transferred", "value": "2 (2)"},
      {"measurement": "Pups (KO)", "setting": "[5]; 49 embryos transferred", "value": "2 (2)"}
    ]}
  ]
}
